The values below come from BindingDB's records for doi:10.1016/s0960-894x(99)00659-9 (Kyoto Pharmaceutical University, 2000).

This experiment in a line: Inhibitory activity against porcine pancreatic elastase (PPE).

Structures are written as SMILES. Some results are limits rather than exact numbers.

Broadly, the IC50 is the concentration needed to halve the response being measured. Higher therefore signals weaker potency. In the case of `O=C(CCc1cccc(O)c1)N[C@@H](Cc1ccccc1)C(=O)CCl` [N-((S)-1-Benzyl-3-chloro-2-oxo-propyl)-3-(3-hydroxy-phenyl)-propionamide], the IC50 was > 1000 µM.

`O=C(CCc1cccc(Cl)c1Cl)N[C@@H](Cc1ccccc1)C(=O)CCl` [N-((S)-1-Benzyl-3-chloro-2-oxo-propyl)-3-(2,3-dichloro-phenyl)-propionamide] yielded an IC50 of 32 µM.

Compound `Cc1cccc(CCC(=O)N[C@@H](Cc2ccccc2)C(=O)CCl)c1` [N-((S)-1-Benzyl-3-chloro-2-oxo-propyl)-3-m-tolyl-propionamide] yielded an IC50 of 130 µM.

The compound `CC(C)c1ccc(CCC(=O)N[C@@H](Cc2ccccc2)C(=O)CCl)cc1` [N-((S)-1-Benzyl-3-chloro-2-oxo-propyl)-3-(4-isopropyl-phenyl)-propionamide] returned an IC50 of 15 µM.

In turn, `COc1cccc(CCC(=O)N[C@@H](Cc2ccccc2)C(=O)CCl)c1` [N-((S)-1-Benzyl-3-chloro-2-oxo-propyl)-3-(3-methoxy-phenyl)-propionamide] came in with an IC50 of 600 µM.

The compound `Cc1ccc(CCC(=O)N[C@@H](Cc2ccccc2)C(=O)CCl)cc1` [N-((S)-1-Benzyl-3-chloro-2-oxo-propyl)-3-p-tolyl-propionamide] gave a half-inhibitory concentration (IC50) of 90 µM.

Compound `O=C(CCc1ccccc1)N[C@@H](Cc1ccccc1)C(=O)CCl` [N-((S)-1-Benzyl-3-chloro-2-oxo-propyl)-3-phenyl-propionamide] had an IC50 of 150 µM.

Compound `COc1ccccc1CCC(=O)N[C@@H](Cc1ccccc1)C(=O)CCl` [N-((S)-1-Benzyl-3-chloro-2-oxo-propyl)-3-(2-methoxy-phenyl)-propionamide] returned an IC50 of 85 µM.

As to `O=C(CCc1ccc(O)cc1)N[C@@H](Cc1ccccc1)C(=O)CCl` [N-((S)-1-Benzyl-3-chloro-2-oxo-propyl)-3-(4-hydroxy-phenyl)-propionamide], the IC50 is > 1000 µM.

In turn, `O=C(CCc1cccc(C(F)(F)F)c1)N[C@@H](Cc1ccccc1)C(=O)CCl` [N-((S)-1-Benzyl-3-chloro-2-oxo-propyl)-3-(3-trifluoromethyl-phenyl)-propionamide] showed an IC50 of 37 µM.

With `O=C(CCc1cccc(F)c1)N[C@@H](Cc1ccccc1)C(=O)CCl` [N-((S)-1-Benzyl-3-chloro-2-oxo-propyl)-3-(3-fluoro-phenyl)-propionamide], the IC50 is 280 µM.

Regarding `O=C(CCc1ccc(F)cc1)N[C@@H](Cc1ccccc1)C(=O)CCl` [N-((S)-1-Benzyl-3-chloro-2-oxo-propyl)-3-(4-fluoro-phenyl)-propionamide], the IC50 came out at 240 µM.

As for `O=C(CCc1ccc(C(F)(F)F)cc1)N[C@@H](Cc1ccccc1)C(=O)CCl` [N-((S)-1-Benzyl-3-chloro-2-oxo-propyl)-3-(4-trifluoromethyl-phenyl)-propionamide], the IC50 was 13 µM.

`O=C(/C=C/c1ccccc1)N[C@@H](Cc1ccccc1)C(=O)CCl` [N-((S)-1-Benzyl-3-chloro-2-oxo-propyl)-3-phenyl-acrylamide]: the IC50 was found to be 26 µM.
